ChEMBL document CHEMBL5528046, “Discovery of Novel PROTAC Degraders of p300/CBP as Potential Therapeutics for Hepatocellular Carcinoma” (J Med Chem, 2024)
Calls of active or inactive are those of the source. The calls are words filed in the database; no cut-off is given here.

Assays:
[1] = biological target: T1, Protein cereblon/Histone acetyltransferase p300 (Homo sapiens, UniProt Q09472+Q96SW2); assay: PROTAC activity at CRBN/p300 in human SK-HEP1 cells assessed as induction of p300 degradation by measuring increase in p21 level at 0.5 uM pretreated with MG-132 at 1 uM followed by compound addition by immunoblotting analysis relative to control; type: cell-based
[2] = biological target: T2, Protein cereblon/CREB-binding protein (Homo sapiens) (UniProt Q92793+Q96SW2); assay: PROTAC activity at CRBN/CBP in human SK-HEP1 cells assessed as induction of […] protein degradation by measuring residual activity at 1 uM incubated for 24 hrs by immunoblotting analysis (reference value: 100%); type: cell-based
T2 sequence (Q92793 2-2442 limits assumed): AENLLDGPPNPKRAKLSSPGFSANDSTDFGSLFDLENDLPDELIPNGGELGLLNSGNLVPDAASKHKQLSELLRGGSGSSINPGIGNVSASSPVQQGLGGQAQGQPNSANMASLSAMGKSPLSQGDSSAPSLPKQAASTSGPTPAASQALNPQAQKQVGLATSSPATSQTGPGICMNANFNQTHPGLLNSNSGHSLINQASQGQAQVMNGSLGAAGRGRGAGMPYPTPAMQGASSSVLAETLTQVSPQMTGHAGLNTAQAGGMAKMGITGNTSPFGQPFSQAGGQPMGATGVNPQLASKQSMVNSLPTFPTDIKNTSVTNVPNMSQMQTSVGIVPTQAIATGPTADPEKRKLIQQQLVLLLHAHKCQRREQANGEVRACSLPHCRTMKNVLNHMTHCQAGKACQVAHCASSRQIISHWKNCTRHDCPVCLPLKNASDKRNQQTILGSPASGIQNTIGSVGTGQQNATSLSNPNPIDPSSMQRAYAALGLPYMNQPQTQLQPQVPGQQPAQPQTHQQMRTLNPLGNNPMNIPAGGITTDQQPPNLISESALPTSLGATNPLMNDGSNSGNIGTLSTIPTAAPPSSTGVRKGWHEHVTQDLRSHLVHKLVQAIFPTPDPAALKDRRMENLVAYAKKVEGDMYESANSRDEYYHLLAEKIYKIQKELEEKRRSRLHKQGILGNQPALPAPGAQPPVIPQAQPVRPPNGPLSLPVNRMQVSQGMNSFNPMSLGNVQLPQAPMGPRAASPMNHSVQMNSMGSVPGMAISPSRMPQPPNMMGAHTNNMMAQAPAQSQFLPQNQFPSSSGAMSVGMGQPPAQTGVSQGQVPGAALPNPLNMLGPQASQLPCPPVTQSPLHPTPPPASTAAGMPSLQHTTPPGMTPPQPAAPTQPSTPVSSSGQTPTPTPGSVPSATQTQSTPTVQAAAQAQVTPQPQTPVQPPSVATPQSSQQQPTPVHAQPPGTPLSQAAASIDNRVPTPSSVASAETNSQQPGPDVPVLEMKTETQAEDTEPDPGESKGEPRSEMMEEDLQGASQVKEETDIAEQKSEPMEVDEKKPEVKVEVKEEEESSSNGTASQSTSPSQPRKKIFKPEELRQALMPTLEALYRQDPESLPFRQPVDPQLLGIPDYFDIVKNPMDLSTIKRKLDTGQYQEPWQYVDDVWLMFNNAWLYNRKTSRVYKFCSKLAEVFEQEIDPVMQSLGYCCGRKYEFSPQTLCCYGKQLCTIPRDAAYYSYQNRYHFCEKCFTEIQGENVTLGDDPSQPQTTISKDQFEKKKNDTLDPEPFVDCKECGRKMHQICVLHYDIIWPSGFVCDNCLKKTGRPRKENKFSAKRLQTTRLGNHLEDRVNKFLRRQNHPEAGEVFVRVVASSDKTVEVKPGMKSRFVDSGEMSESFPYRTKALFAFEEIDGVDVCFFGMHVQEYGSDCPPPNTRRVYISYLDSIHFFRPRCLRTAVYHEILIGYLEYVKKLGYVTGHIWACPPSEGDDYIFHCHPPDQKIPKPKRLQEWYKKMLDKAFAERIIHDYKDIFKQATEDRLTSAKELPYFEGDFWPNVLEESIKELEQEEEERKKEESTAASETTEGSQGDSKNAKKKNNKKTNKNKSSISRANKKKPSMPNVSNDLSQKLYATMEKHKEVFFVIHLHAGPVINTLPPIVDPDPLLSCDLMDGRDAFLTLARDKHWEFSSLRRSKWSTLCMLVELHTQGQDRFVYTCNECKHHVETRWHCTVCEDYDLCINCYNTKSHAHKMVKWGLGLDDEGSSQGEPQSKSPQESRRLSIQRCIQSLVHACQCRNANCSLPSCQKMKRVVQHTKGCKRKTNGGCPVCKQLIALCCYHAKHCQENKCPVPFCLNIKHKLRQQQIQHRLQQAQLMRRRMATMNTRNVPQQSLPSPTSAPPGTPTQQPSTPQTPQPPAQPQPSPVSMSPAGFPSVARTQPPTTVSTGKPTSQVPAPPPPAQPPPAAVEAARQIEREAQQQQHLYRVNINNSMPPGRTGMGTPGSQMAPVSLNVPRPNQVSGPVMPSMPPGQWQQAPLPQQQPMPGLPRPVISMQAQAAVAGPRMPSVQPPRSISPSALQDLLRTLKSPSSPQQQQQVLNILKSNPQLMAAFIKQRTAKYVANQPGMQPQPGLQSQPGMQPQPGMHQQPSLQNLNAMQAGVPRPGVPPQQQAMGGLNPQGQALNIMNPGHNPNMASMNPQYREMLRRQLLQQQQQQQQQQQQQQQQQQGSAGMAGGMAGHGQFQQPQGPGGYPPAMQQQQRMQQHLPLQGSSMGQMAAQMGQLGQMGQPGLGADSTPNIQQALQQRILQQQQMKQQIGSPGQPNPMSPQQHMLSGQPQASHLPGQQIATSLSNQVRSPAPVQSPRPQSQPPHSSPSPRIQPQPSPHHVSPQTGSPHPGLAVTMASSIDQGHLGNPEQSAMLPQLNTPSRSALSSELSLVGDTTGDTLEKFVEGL
T2 sequence (Q96SW2 whole entry partner): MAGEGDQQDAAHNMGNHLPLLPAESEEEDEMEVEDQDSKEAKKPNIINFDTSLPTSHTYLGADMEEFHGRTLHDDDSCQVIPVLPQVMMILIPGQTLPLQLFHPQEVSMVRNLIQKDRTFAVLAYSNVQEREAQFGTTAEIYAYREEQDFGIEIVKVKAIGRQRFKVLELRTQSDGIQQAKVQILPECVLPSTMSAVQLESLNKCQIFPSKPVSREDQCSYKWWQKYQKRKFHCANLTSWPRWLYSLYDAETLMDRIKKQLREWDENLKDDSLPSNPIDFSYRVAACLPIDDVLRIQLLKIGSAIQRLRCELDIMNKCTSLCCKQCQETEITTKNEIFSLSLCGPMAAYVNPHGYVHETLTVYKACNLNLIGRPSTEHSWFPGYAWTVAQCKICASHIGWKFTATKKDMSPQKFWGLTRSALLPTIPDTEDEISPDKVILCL

[3] = biological target: T1, Protein cereblon/Histone acetyltransferase p300; assay: PROTAC activity at CRBN/p300 in human SK-HEP1 cells assessed as induction of p300 protein degradation by measuring residual activity at 100 nM incubated for 24 hrs by immunoblotting analysis (reference value: 100%); type: cell-based
[4] = test system: SK-HEP1; assay: Downregulation of ABI3BP mRNA expression in human SK-HEP1 cells at 1 uM incubated for 24 hrs by RT-qPCR analysis; type: functional, cell-based
[5] = test system: SK-HEP1; assay: Inhibition of colony formation in human SK-HEP1 cells incubated for 14 days with compound containing media replacement for every 3 days by crystal violet staining based assay; type: functional, cell-based; details: dose 0.5-2 µM, time 14.0 day
[6] = biological target: T1, Protein cereblon/Histone acetyltransferase p300; assay: PROTAC activity at CRBN/p300 in human SK-HEP1 cells with siRNA mediated CRBN knockdown assessed as induction of p300 degradation by measuring residual activity at 1 uM by immunoblotting analysis relative to control; type: cell-based
[7] = test system: SK-HEP1; assay: Induction of cell cycle arrest at G2/M phase in human SK-HEP1 cells assessed as SKP2 protein level at 1 uM incubated for 24 hrs by immunoblotting analysis (reference value: 100%); type: functional
[8] = biological target: T1, Protein cereblon/Histone acetyltransferase p300; assay: PROTAC activity at CRBN/p300 in human SK-HEP1 cells assessed as induction of p300 protein degradation by measuring residual activity at 2 uM incubated for 24 hrs by immunoblotting analysis (reference value: 100%); type: cell-based
[9] = test system: SK-HEP1; assay: Induction of cell cycle arrest at G2/M phase in human SK-HEP1 cells assessed as CDK6 protein level at 0.5 uM incubated for 24 hrs by immunoblotting analysis (reference value: 100%); type: functional
[10] = test system: SK-HEP1; assay: Downregulation of POSTN mRNA expression in human SK-HEP1 cells at 1 uM incubated for 24 hrs by RT-qPCR analysis; type: functional, cell-based
[11] = biological target: T1, Protein cereblon/Histone acetyltransferase p300; assay: PROTAC activity at CRBN/p300 in human SK-HEP1 cells assessed as induction of p300 degradation by measuring residual activity at 0.5 uM pretreated with MLN4924 at 0.5 uM followed by compound addition by immunoblotting analysis relative to control; type: cell-based
[12] = biological target: T1, Protein cereblon/Histone acetyltransferase p300; assay: PROTAC activity at CRBN/p300 in human SK-HEP1 cells assessed as induction of p300 degradation by measuring residual activity at 0.5 uM pretreated with thalidomide at 0.5 uM followed by compound addition by immunoblotting analysis relative to control; type: cell-based
[13] = biological target: T2, Protein cereblon/CREB-binding protein (Homo sapiens); assay: In vivo PROTAC activity at CRBN/CBP in nude mouse xenografted with human SK-HEP1 cells assessed as reduction in CBP protein level in tumor at 50 mg/kg, ip measured after 24 hrs by immunoblotting analysis; type: functional, organism-based
[14] = biological target: T1, Protein cereblon/Histone acetyltransferase p300; assay: PROTAC activity at CRBN/p300 in human SK-HEP1 cells assessed as induction of p300 protein degradation by measuring residual activity at 10 nM incubated for 24 hrs by immunoblotting analysis (reference value: 100%); type: cell-based
[15] = biological target: T1, Protein cereblon/Histone acetyltransferase p300; assay: PROTAC activity at CRBN/p300 in human SK-HEP1 cells assessed as increase in protein ubiquitination at 2 uM pretreated with MG132 at 1 uM followed by compound treatment and further incubated for 24 hrs by immunoblotting analysis (reference value: 100%); type: cell-based
[16] = test system: SK-HEP1; assay: Antiproliferative activity against human SK-HEP1 cells assessed as inhibition of cell growth incubated for 5 days by CCK-8 assay; type: functional, cell-based; details: SK-HEP1, 120 h
[17] = biological target: T1, Protein cereblon/Histone acetyltransferase p300; assay: PROTAC activity at CRBN/p300 in human SK-HEP1 cells assessed as induction of p300 protein degradation by measuring residual activity at 1 uM incubated for 0.5 hrs by immunoblotting analysis (reference value: 100%); type: cell-based
[18] = biological target: T2, Protein cereblon/CREB-binding protein (Homo sapiens); assay: PROTAC activity at CRBN/CBP in human SK-HEP1 cells assessed as induction of […] protein degradation by measuring residual activity at 2 uM incubated for 24 hrs by immunoblotting analysis (reference value: 100%); type: cell-based
[19] = biological target: T1, Protein cereblon/Histone acetyltransferase p300; assay: PROTAC activity at CRBN/p300 in human SK-HEP1 cells assessed as induction of p300 protein degradation at 0.1 uM incubated for 24 hrs relative to control; type: cell-based
[20] = biological target: T1, Protein cereblon/Histone acetyltransferase p300; assay: PROTAC activity at CRBN/p300 in human SK-HEP1 cells assessed as induction of p300 protein degradation by measuring residual activity at 1 uM incubated for 6 hrs by immunoblotting analysis (reference value: 100%); type: cell-based
[21] = biological target: T2, Protein cereblon/CREB-binding protein (Homo sapiens); assay: PROTAC activity at CRBN/CBP in human SK-HEP1 cells assessed as induction of […] protein degradation by measuring residual activity at 0.5 uM incubated for 24 hrs by immunoblotting analysis (reference value: 100%); type: cell-based
[22] = biological target: T1, Protein cereblon/Histone acetyltransferase p300; assay: PROTAC activity at CRBN/p300 in human SK-HEP1 cells assessed as induction of p300 protein degradation at 0.01 uM incubated for 24 hrs relative to control; type: cell-based
[23] = test system: SK-HEP1; assay: Induction of cell cycle arrest at G2/M phase in human SK-HEP1 cells incubated for 48 hrs by RNase/PI staining based flow cytometry analysis; type: functional; details: dose 0.5-2 µM
[24] = biological target: T1, Protein cereblon/Histone acetyltransferase p300; assay: PROTAC activity at CRBN/p300 in human SK-HEP1 cells assessed as induction of p300 degradation by measuring residual activity at 0.5 uM pretreated with MLN4924 at 0.1 uM followed by compound addition by immunoblotting analysis relative to control; type: cell-based
[25] = biological target: T1, Protein cereblon/Histone acetyltransferase p300; assay: PROTAC activity at CRBN/p300 in human SK-HEP1 cells assessed as increase in protein ubiquitination at 2 uM incubated for 24 hrs by immunoblotting analysis (reference value: 100%); type: cell-based
[26] = test system: SK-HEP1; assay: Induction of apoptosis in human SK-HEP1 cells incubated for 72 hrs by Annexin V-FITC/PI staining based flow cytometry analysis; type: functional, cell-based; details: dose 0.5-2 µM
[27] = biological target: T1, Protein cereblon/Histone acetyltransferase p300; assay: PROTAC activity at CRBN/p300 in human SK-HEP1 cells assessed as induction of p300 degradation by measuring residual activity at 0.5 uM pretreated with MG-132 followed by compound addition by immunoblotting analysis relative to control; type: cell-based
[28] = test system: Mus musculus; assay: In vivo PROTAC activity at CRBN/p300 in nude mouse xenografted with human SK-HEP1 cells assessed as reduction in p300 protein level in tumor at 50 mg/kg, ip measured after 24 hrs by immunoblotting analysis; type: functional, organism-based
[29] = test system: SK-HEP1; assay: Downregulation of IGFBP3 mRNA expression in human SK-HEP1 cells at 1 uM incubated for 24 hrs by RT-qPCR analysis; type: functional, cell-based

Activity [1]: 537%
Activity [2]: 92%
Activity [3]: 61%
Activity [6]: 78%
Activity [8]: 62%
Activity [11]: 101%
Activity [12]: 99%
Activity [13]: Active
Activity [14]: 70%
Activity [15]: 114%
IC50 [16]: 733 nM
Activity [17]: 100%
Activity [18]: 89%
Activity [19]: 27%
Activity [20]: 59%
Activity [21]: 98%
Activity [22]: 9%
Activity [24]: 115%
Activity [25]: 125%
Activity [27]: 93%
SMILES: Cc1noc(C)c1-c1ccc2c(c1)nc([C@@H]1CCCC(=O)N1c1ccc(F)c(F)c1)n2C1CCN(C2CN(c3ccc4c(c3)C(=O)N(C3CCC(=O)NC3=O)C4=O)C2)CC1 (some centres undefined)
Activity [4]: Active
inhibition [5]: Dose-Dependent Effect
Activity [7]: 88%
Activity [9]: 104%
Activity [10]: Active
Activity [23]: Dose-Dependent Effect
Activity [26]: Dose-Dependent Effect
Activity [28]: Active
Activity [29]: Active
